Where a SMILES comes first, the peptide text is derived from it. The star is where a group is joined. Cbz = O=C(OCc1ccccc1)*; CH2F = FC*
Assays:
Assay type in all cases: cell-based, human
OVCAR8 cells = test: CCK-8 cell viability assay; conditions: for effect on cell viability: 100 nM for 4 days, FIG. 4D
Experimental: (§1) Briefly, cells were cultured in 96-well plates and CCK-8 reagent was added to cells. After 2-h incubation at 37° C., absorbance was measured using a Bio-Rad plate reader at 460 nm. In vitro invasion was assayed using Matrigel invasion chamber available from Cell Biolabs Inc (San Diego, CA) according to manufacturer's protocol. Flow cytometry-based cell apoptosis was determined using Dead Cell Apoptosis Kits with Annexin V (Thermo Fisher, Cat #V13242) according to manufacturer's protocol. Lipid raft fractions were prepared using Minute™ Plasma Membrane-Derived Lipid Raft Isolation Kit (Invent Biotechnologies, Plymouth, MN) according to manufacturer's protocol.

HEY cells = test: CCK-8 cell viability assay; conditions: for effect on cell viability: 100 nM for 4 days, FIG. 4D
Experimental: as §1

[1] = tested on: FAP-PRKDC co-localization in HEY cells; test: Confocal immunofluorescence staining of FAP and PRKDC; conditions: 5 mM MBC for 1 day, FIG. 6E
Experimental: (§2) Immunofluorescence staining: Cells were plated on coverslips for overnight and then fixed with 4% paraformaldehyde followed by permeabilization with 1% Triton X-100. Cells were washed three times with 1×PBS (Thermo Fisher, Cat #: 10010049). After brief blocking with 1% BSA, cells were incubated with anti-FAP mAb (Cat #sc-65398, Santa Cruz Biotechnology, Santa Cruz, CA) or anti-PRKDC polyclonal antibody (Cat #ab32566, Abcam) for 1 h and then with secondary antibody (Alexa Fluor® 488 and Alexa Fluor® 568) for another hour. Coverslips were mounted on […] using Permount solution (Cat #: P36961, Thermo Fisher) and cell fluorescence staining was viewed with confocal microscopy (Carl Zeiss Vision, LSM510). To locate lipid rafts, recombinant Cholera toxin subunit B conjugated with Alexa Fluor™ 647 (Cat #C34778, Thermo Fisher) was included during incubation with secondary antibody.
(§3) Both FAP and PRKDC have been reported to be present in the lipid rafts with unknown function (13, 14). We investigated whether FAP-PRKDC interaction occurred in lipid rafts. We first isolated lipid fraction from HEY and OVCAR8 cells followed by western blot analysis to detect FAP and PRKDC. As well characterized lipid raft marker caveolin-1, both FAP and PRKDC were readily seen in lipid raft isolates (FIG. 6C). […]

[2] = tested on: FAP-PRKDC co-localization in OVCAR8 cells; test: as above; conditions: 5 mM MBC for 1 day, FIG. 6E
Experimental: as §2, §3

Compound: COCCn1c2c([n+](Cc3cnccn3)c1C)C(=O)c1ccccc1C2=O [YM155]
- effect on cell viability (OVCAR8 cells; OVCAR8 cells): significant decrease in cell viability
- effect on cell viability (HEY cells; HEY cells): significant decrease in cell viability

Compound: Cc1c(-c2c(-c3ccc(F)o3)sc3ncnc(O[C@H](Cc4ccccc4OCc4ccnn4CC(F)(F)F)C(=O)O)c23)ccc(OCCN2CCN(C)CC2)c1Cl [S63845]
- effect on cell viability (OVCAR8 cells; OVCAR8 cells): much less inhibitory effect
- effect on cell viability (HEY cells; HEY cells): much less inhibitory effect

Compound: CC[C@H](NC(=O)[C@H](C)NC)C(=O)N1C[C@@H](O)C[C@H]1Cc1c(-c2[nH]c3cc(F)ccc3c2C[C@@H]2C[C@H](O)CN2C(=O)[C@H](CC)NC(=O)[C@H](C)NC)[nH]c2cc(F)ccc12 [Birinapant]
- effect on cell viability (OVCAR8 cells; OVCAR8 cells): much less inhibitory effect
- effect on cell viability (HEY cells; HEY cells): much less inhibitory effect

Compound: Methyl-beta-cyclodextrin [MBC]
- FAP-PRKDC co-localization after disruption of lipid rafts [1]: undetectable FAP-PRKDC co-localization
- FAP-PRKDC co-localization after disruption of lipid rafts [2]: undetectable FAP-PRKDC co-localization

Compound: CC(C)[C@H](N)C(=O)N1CCC[C@H]1B(O)O [Alabostat, Talabostat]
- effect on survival (OVCAR8 cells; OVCAR8 cells, 1 mM Batimastat or 1 μM Talabostat alone or in combination, 4 days, FIG. 9): little effect
- effect on survival (HEY cells; HEY cells, 1 mM Batimastat or 1 μM Talabostat alone or in combination, 4 days, FIG. 9): little effect

Compound: COC(=O)C[C@H](NC(=O)[C@H](C)NC(=O)[C@@H](NC(=O)OCc1ccccc1)C(C)C)C(=O)CF [zVAD] (Cbz-Val-Ala-Asp(OMe)-CH2F)
- effect on FAP shRNA-led cell death (OVCAR8 cells; OVCAR8 cells transduced with FAP shRNA, 10 μM from one day post-infection, total 4 days, FIG. 2E): blocked anti-FAP shRNA-led cell death
- effect on FAP shRNA-led cell death (HEY cells; HEY cells transduced with FAP shRNA, 10 μM from one day post-infection, total 4 days, FIG. 2E): blocked anti-FAP shRNA-led cell death
